Results taken from patent US9371281B2, “Indole derivatives as inhibitors of histone deacetylase” (Pharmacyclics LLC, priority 2006, dated 2016).

Key:
[1] = molecular target: T1, HDAC8 (Homo sapiens, UniProt Q9BY41); experiment: Inhibition of HDAC8 deacetylase activity in vitro; type: biochemical
T1 sequence (Q9BY41 1-377): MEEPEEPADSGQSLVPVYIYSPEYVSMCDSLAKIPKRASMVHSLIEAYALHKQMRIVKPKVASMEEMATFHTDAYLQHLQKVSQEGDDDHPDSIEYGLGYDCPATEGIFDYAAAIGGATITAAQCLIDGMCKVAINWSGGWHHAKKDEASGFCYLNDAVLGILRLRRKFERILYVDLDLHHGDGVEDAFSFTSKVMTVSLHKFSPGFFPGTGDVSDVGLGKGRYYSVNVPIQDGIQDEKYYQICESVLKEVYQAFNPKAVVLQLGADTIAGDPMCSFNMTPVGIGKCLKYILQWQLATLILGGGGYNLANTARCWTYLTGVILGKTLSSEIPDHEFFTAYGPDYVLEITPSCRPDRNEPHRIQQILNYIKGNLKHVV

[2] = molecular target: HDAC1 (Homo sapiens, UniProt Q13547); experiment: Inhibition of HDAC1 deacetylase activity in vitro; type: biochemical; conditions: ratio of IC50 values
Chain of HDAC1 (Q13547 whole entry): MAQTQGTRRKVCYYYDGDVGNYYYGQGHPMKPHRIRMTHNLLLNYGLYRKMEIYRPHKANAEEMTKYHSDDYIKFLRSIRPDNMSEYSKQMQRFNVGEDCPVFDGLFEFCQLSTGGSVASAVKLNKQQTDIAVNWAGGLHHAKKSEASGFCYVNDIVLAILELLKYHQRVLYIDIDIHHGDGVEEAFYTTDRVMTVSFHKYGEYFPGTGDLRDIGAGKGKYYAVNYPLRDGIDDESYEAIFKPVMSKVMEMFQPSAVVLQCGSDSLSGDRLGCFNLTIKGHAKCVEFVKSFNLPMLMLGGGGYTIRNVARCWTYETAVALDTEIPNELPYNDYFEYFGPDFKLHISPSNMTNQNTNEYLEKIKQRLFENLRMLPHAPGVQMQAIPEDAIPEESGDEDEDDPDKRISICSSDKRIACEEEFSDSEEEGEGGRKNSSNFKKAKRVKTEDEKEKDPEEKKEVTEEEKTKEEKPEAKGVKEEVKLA

## O=C(NO)c1ccc2ccn(Cc3ccc(Cl)c(Cl)c3)c2c1 [Compound 1, 1-(3,4-dichloro-phenylmethyl)-1H-indole-6-carboxylic acid hydroxyamide]
[1]
  IC50: < 0.1 µM
[2]
  HDAC-1/HDAC-8: A (A >10 and <100)

## Cc1ccccc1Cn1ccc2ccc(C(=O)NO)cc21 [Compound 2, 1-(2-methyl-phenylmethyl)-1H-indole-6-carboxylic acid hydroxyamide]
[1]
  IC50: < 0.1 µM
[2]
  HDAC-1/HDAC-8: A (A >10 and <100)

## COc1cc(Cn2ccc3ccc(C(=O)NO)cc32)cc(OC)c1OC [Compound 3, 1-(3,4,5-trimethoxy-phenylmethyl)-1H-indole-6-carboxylic acid hydroxyamide]
[1]
  IC50: > 0.1 µM
[2]
  HDAC-1/HDAC-8: A (A >10 and <100)

## O=C(NO)c1ccc2ccn(Cc3cccc(F)c3)c2c1 [Compound 4, 1-(3-fluoro-phenylmethyl)-1H-indole-6-carboxylic acid hydroxyamide]
[1]
  IC50: < 0.1 µM
[2]
  HDAC-1/HDAC-8: A (A >10 and <100)

## Cc1cccc(Cn2ccc3ccc(C(=O)NO)cc32)c1 [Compound 5, 1-(3-methyl-phenylmethyl)-1H-indole-6-carboxylic acid hydroxyamide]
[1]
  IC50: < 0.1 µM
[2]
  HDAC-1/HDAC-8: A (A >10 and <100)

## O=C(NO)c1ccc2ccn(Cc3ccccc3)c2c1 [Compound 6, 1-(benzyl)-1H-indole-6-carboxylic acid hydroxyamide]
[1]
  IC50: < 0.1 µM
[2]
  HDAC-1/HDAC-8: A (A >10 and <100)

## COc1cc(Cn2ccc3ccc(C(=O)NO)cc32)cc(OC)c1 [Compound 7, 1-(3,5-dimethoxy-phenylmethyl)-1H-indole-6-carboxylic acid hydroxyamide]
[1]
  IC50: < 0.1 µM
[2]
  HDAC-1/HDAC-8: A (A >10 and <100)

## CC(c1ccccc1)n1ccc2ccc(C(=O)NO)cc21 (stereo not shown) [Compound 8, 1-(1-methyl-1-phenylmethyl)-1H-indole-6-carboxylic acid hydroxyamide]
[1]
  IC50: < 0.1 µM
[2]
  HDAC-1/HDAC-8: A (A >10 and <100)

## O=C(NO)c1ccc2ccn(Cc3ccc(F)cc3)c2c1 [Compound 9, 1-(4-fluoro-phenylmethyl)-1H-indole-6-carboxylic acid hydroxyamide]
[1]
  IC50: < 0.1 µM
[2]
  HDAC-1/HDAC-8: A (A >10 and <100)

## O=C(NO)c1ccc2ccn(Cc3ccccc3F)c2c1 [Compound 10, 1-(2-fluoro-phenylmethyl)-1H-indole-6-carboxylic acid hydroxyamide]
[1]
  IC50: < 0.1 µM
[2]
  HDAC-1/HDAC-8: A (A >10 and <100)

## O=C(NO)c1ccc2ccn(Cc3ccccc3Cl)c2c1 [Compound 11, 1-(2-chloro-phenylmethyl)-1H-indole-6-carboxylic acid hydroxyamide]
[1]
  IC50: < 0.1 µM
[2]
  HDAC-1/HDAC-8: A (A >10 and <100)

## COc1cccc(Cn2ccc3ccc(C(=O)NO)cc32)c1 [Compound 12, 1-(3-methoxy-phenylmethyl)-1H-indole-6-carboxylic acid hydroxyamide]
[1]
  IC50: < 0.1 µM
[2]
  HDAC-1/HDAC-8: A (A >10 and <100)

## O=C(NO)c1ccc2ccn(Cc3ccc4ccccc4c3)c2c1 [Compound 13, 1-(naphth-2-ylmethyl)-1H-indole-6-carboxylic acid hydroxyamide]
[1]
  IC50: < 0.1 µM
[2]
  HDAC-1/HDAC-8: A (A >10 and <100)

## O=C(NO)c1ccc2ccn(CCCc3ccccc3)c2c1 [Compound 14, 1-(3-phenylpropyl)-1H-indole-6-carboxylic acid hydroxyamide]
[1]
  IC50: < 0.1 µM
[2]
  HDAC-1/HDAC-8: A (A >10 and <100)

## O=C(NO)c1ccc2ccn(CC3CCCCC3)c2c1 [Compound 15, 1-(cyclohexylmethyl)-1H-indole-6-carboxylic acid hydroxyamide]
[1]
  IC50: < 0.1 µM
[2]
  HDAC-1/HDAC-8: A (A >10 and <100)

## O=C(NO)c1ccc2ccn(CC=Cc3ccccc3)c2c1 [Compound 16, 1-[1-(phenyl)-propen-3-yl]-1H-indole-6-carboxylic acid hydroxyamide]
[1]
  IC50: < 0.1 µM
[2]
  HDAC-1/HDAC-8: B (B >100)

## O=C(NO)c1ccc2ccn(Cc3ccc(OC(F)(F)F)cc3)c2c1 [Compound 17, 1-[4-(trifluoromethoxy)-phenylmethyl]-1H-indole-6-carboxylic acid hydroxyamide]
[1]
  IC50: < 0.1 µM
[2]
  HDAC-1/HDAC-8: B (B >100)
